Each compound was assayed against PLK1 (Homo sapiens, UniProt P53350) (assay: PLK1 protein kinase assay (CDC25C phosphorylation, [γ-32P]-ATP)). Conditions: Table 2, PLK1 IC50; class symbols; read-out: PLK1 IC50.
Format: biochemical

Chain of PLK1 (P53350 whole entry): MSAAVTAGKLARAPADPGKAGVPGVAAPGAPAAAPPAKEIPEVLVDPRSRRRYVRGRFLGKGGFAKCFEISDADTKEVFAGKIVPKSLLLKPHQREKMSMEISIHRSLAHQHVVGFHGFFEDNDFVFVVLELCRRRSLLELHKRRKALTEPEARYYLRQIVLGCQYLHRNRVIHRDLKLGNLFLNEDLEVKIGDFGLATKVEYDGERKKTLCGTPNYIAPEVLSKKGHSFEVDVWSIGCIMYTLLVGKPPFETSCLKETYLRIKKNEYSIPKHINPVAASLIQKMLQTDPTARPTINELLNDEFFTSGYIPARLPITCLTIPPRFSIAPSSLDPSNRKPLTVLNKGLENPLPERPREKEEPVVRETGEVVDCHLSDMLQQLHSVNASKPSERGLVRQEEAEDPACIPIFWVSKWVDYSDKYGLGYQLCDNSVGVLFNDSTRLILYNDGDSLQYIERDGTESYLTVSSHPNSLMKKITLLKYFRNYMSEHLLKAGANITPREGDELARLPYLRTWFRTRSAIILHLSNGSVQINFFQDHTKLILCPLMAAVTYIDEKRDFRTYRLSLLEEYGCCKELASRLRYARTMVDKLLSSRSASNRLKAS

Compound | IC50
COc1cc(C(=O)NCC(C)(C)CN(C)C)ccc1Nc1ncc2c(n1)N(C1CCCC1)CC1(CC1)C(=O)N2C [compound 256, 4-(9-Cyclopentyl-5-methyl-6-oxo-6,7,8,9-tetrahydro-5H-pyrimido[4,5-b][1,4]diazepin-3,1′-cyclopropane-2-ylamino)-N-(3-dimethylamino-2,2-dimethyl-propyl)-3-methoxy-benzamide] | < 0.1 µM
COc1cc(C(=O)NCc2ccncc2)ccc1Nc1ncc2c(n1)N(C1CCCC1)CC1(CC1)C(=O)N2C [compound 258, 4(9-Cyclopentyl-5-methyl-6-oxo-6,7,8,9-tetrahydro-5H-pyrimido[4,5-b][1,4]diazepin-3,1′-cyclopropane-2-ylamino)-3-methoxy-N-pyridin-4-ylmethyl-benzamide] | < 0.1 µM
COc1cc(C(=O)NCc2cccn2C)ccc1Nc1ncc2c(n1)N(C1CCCC1)CC1(CC1)C(=O)N2C [compound 259, 4-(9-Cyclopentyl-5-methyl-6-oxo-6,7,8,9-tetrahydro-5H-pyrimido[4,5-b][1,4]diazepin-3,1′-cyclopropane-2-ylamino)-3-methoxy-N-(1-methyl-1 H-pyrrol-2-ylmethyl)-benzamide] | < 0.1 µM
COc1cc(C(=O)NC2CCCC2)ccc1Nc1ncc2c(n1)N(C1CCCC1)CC1(CC1)C(=O)N2C [compound 260, N-Cyclopentyl-4-(9-Cyclopentyl-5-methyl-6-oxo-6,7,8,9-tetrahydro-5H-spiro[pyrimido[4,5-b][1,4]diazepin-3,1′-cyclopropane]-2-ylamino)-3-methoxy-benzamide] | < 0.1 µM
CCc1cc(C(=O)NC2CCN(C)CC2)ccc1Nc1ncc2c(n1)N(C1CCCC1)CC1(CC1)C(=O)N2C [compound 261, 4-(9-Cyclopentyl-5-methyl-6-oxo-6,7,8,9-tetrahydro-5H-spiro(pyrimido[4,5-b][1,4]diazepin-3,1′-cyclopropane]-2-ylamino)-3-ethyl-N-(1-methyl-piperidin-4-yl)-benzamide] | < 0.1 µM
COc1cc(C(=O)NC2CCN(C)CC2)ccc1Nc1ncc2c(n1)N(CC1CC1)CC1(CC1)C(=O)N2C [compound 262, 4-(9-Cyclopropylmethyl-5-methyl-6-oxo-6,7,8,9-tetrahydro-5H-pyrimido[4,5-b][1,4]diazepin-3,1′-cyclopropane-2-ylamino)-3-methoxy-N-(1-methyl-piperidin-4-yl)-benzamide] | < 0.1 µM

Other lines, results leading:

IC50 | Compound
< 1 µM | COc1ccc(C(=O)NCCOCCO)cc1Nc1ncc2c(n1)N(C1CCCC1)CCC(=O)N2C [compound 263, 3-(9-Cyclopentyl-5-methyl-6-oxo-6,7,8,9-tetrahydro-5H-pyrimido[4,5-b][1,4]diazepin-2-ylamino)-N-[2-(2-hydroxy-ethoxy)-ethyl]-4-methoxy-benzamide]
< 1 µM | CONC(=O)c1ccc(OC)c(Nc2ncc3c(n2)N(C2CCCC2)CCC(=O)N3C)c1 [compound 264, 3-(9-Cyclopentyl-5-methyl-6-oxo-6,7,8,9-tetrahydro-5H-pyrimido[4,5-b][1,4]diazepin-2-ylamino)-4,N-dimethoxy-benzamide]
< 1 µM | COc1ccc(C(=O)NC2CCN(Cc3ccccc3)C2)cc1Nc1ncc2c(n1)N(C1CCCC1)CCC(=O)N2C (centres unmarked) [compound 265, N-(1-Benzyl-pyrrolidin-3-yl)-3-(9-cyclopentyl-5-methyl-6-oxo-6,7,8,9-tetrahydro-5H-pyrimido[4,5-b][1,4]diazepin-2-ylamino)-4-methoxy-benzamide]
< 1 µM | COc1ccc(C(=O)NCCN2CCOCC2)cc1Nc1ncc2c(n1)N(C1CCCC1)CCC(=O)N2C [compound 266, 3-(9-Cyclopentyl-5-methyl-6-oxo-6,7,8,9-tetrahydro-5H-pyrimido[4,5-b][1,4]diazepin-2-ylamino)-4-methoxy-N-(2-morpholin-4-yl-ethyl)-benzamide]
< 1 µM | COc1ccc(C(=O)NCCc2c[nH]cn2)cc1Nc1ncc2c(n1)N(C1CCCC1)CCC(=O)N2C [compound 267, 3-(9-Cyclopentyl-5-methyl-6-oxo-6,7,8,9-tetrahydro-5H-pyrimido[4,5-b][1,4]diazepin-2-ylamino)-N-[2-(1H-imidazol-4-yl)-ethyl]-4-methoxy-benzamide]
